Assay results from patent publication US20020132802A1, “Cytoprotective polycyclic compounds” (Washington Univeristy, priority 2000, published 2002).
Like-named read-outs stand apart in the source and are kept apart here.

System: HT-22 cells
Assay: HT-22 Cell Neuroprotection Assay (glutamate-induced cell death, calcein AM viability)
Assay type: cell-based, murine
Conditions: about 16 h exposure
Procedure: Method: HT-22 Cell Neuroprotection Assay
HT-22 cells (immortalized hippocampal neurons of murine origin) were maintained in DMEM media (Life Technologies, Inc., Gaitherburg, Md.) supplemented with 10% charcoal-stripped FBS (HyClone Laboratories, Inc., Logan, Utah) and 20 μg/mL gentamycin, according to standard culture conditions.
Cells were plated at a density of 5,000 cells/well in clear-bottomed Nunc 96-well plates (Fisher Scientific, Orlando, Fla.) and allowed to incubate overnight. Steroids dissolved in DMSO were added at concentrations ranging from 0.01-10 μM and were co-administered with glutamate (10 mM or 20 mM). DMSO was used at concentrations of 0.1% vol/vol as a vehicle control and had no discernible effect on cell viability. After about 16 h of glutamate exposure, cells were rinsed with PBS, pH 7.4, and viability was assessed by the addition of 25 μM calcein AM (Molecular Probes, Inc., Eugene, Oreg.) in PBS for 15 min at room temperature. Fluorescence was determined (excitation 485 nm, emission 530 nm) using a fluorescence FL600 microplate reader (Biotek, Winooski, Vt.). Cells that were lysed by addition of methanol were used for blank readings. All data were normalized to % cell death, as calculated by (control value −insult value)/control value×100.

Row | Compound | EC50 (Mus musculus, co-administered with 10 mM glutamate, read-out: Steroid concentration needed to protect 50% of neurons killed by 10 mM Glutamate ED50) [nM] | EC50 (co-administered with 10 mM glutamate, read-out: Steroid concentration needed to protect 50% of neurons killed by 10 mM Glutamate ED50) [nM] | EC50 (co-administered with 20 mM glutamate, read-out: Steroid concentration needed to protect 50% of neurons killed by 20 mM Glutamate ED50) [nM]
1 | C[C@]12CC[C@@H]3c4ccc(O)cc4CC[C@H]3[C@@H]1CCC2=O [Estrone, estrone, reference compound] | 3030 | – | –
2 | C[C@@]12CC=C3c4ccc(O)cc4CC[C@@H]3[C@H]1CC[C@H]2O [ZYC-12] | – | 530 | 1430
